Laboratory results as given in patent US20100028889A1, “COMPANION DIAGNOSTIC ASSAYS FOR CANCER THERAPY” (ABBOTT LABORATORIES, priority 2006, published 2010).

Tests used:
Experiment in all cases: sensitivity of leukemia/lymphoma cell line, 5 uM cut-off
Format in all cases: cell-based
DOHH2 = settings: Homo sapiens, DOHH-2, read-out: sensitivity class by EC50
Experimental: (§1) The following SCLC cell lines were obtained from ATCC (Manassis, Va.): NCI-H889, NCI-H1963, NCI-H1417, NCI-H146, NCI-H187, DMS53, NCI-H510, NCI-H209, NCI-H211, NCI-H345, NCI-H524, NCI-H69, DMS79, SHP77, NCI-H1688, NCI-H446, NCI-H740, NCI-H1048, NCI-H82, NCI-H196, SW1271, H69AR, NCI-H526, NCI-H865, NCI-H748, NCI-H711, and DMS114. All cells were cultured in the ATCC recommended media at 37° C. in a humidified atmosphere containing 5% CO2. The following leukemia and lymphoma cell lines were obtained from ATCC (Manassis, Va.): MV-4-11, RS4;11, Loucy, KG-1A, DOHH2, Rs11380, CCRF-HSB-2, CCRF-CEM, CEM/C1, Reh, SUP-B15, MOLT-4, SUDHL4, HL-60, RPMI 8226, A3, Daudi, WSU-NHL, Pfeiffer, Jurkat I 9.2, Jurkat, MEG-01, U-937, K-562, and Raji.
(§2) The 25 leukemia/lymphoma cell lines were also tested for sensitivity to ABT-737 using the 5 uM cut-off, and sensitive cell lines were MV-4-11, RS4;11, Loucy, KG-1A, DOHH2, Rs11380, CCRF-HSB-2, CCRF-CEM, CEM/C1, Reh, SUP-B15, MOLT-4, SUDHL4, HL-60, RPMI 8226, A3, Daudi, WSU-NHL, Pfeiffer, and Jurkat I 9.2, and the resistant cell lines Jurkat, MEG-01, U-937, K-562, and Raji.
as §2, with “ABT-263” for “ABT-737”

KG-1A = settings: Homo sapiens, read-out: sensitivity class by EC50
Experimental: as §1, §2
as §2, with “ABT-263” for “ABT-737”

A3 = settings: Homo sapiens, read-out: sensitivity class by EC50
Experimental: as §1, §2
as §2, with “ABT-263” for “ABT-737”

SUDHL4 = settings: Homo sapiens, SU-DHL-4, read-out: sensitivity class by EC50
Experimental: as §1, §2
as §2, with “ABT-263” for “ABT-737”

Jurkat = settings: Homo sapiens, read-out: sensitivity class by EC50
Experimental: as §1, §2
as §2, with “ABT-263” for “ABT-737”

CEM/C1 = settings: Homo sapiens, read-out: sensitivity class by EC50
Experimental: as §1, §2
as §2, with “ABT-263” for “ABT-737”

SUP-B15 = settings: Homo sapiens, read-out: sensitivity class by EC50
Experimental: as §1, §2
as §2, with “ABT-263” for “ABT-737”

Raji = settings: Homo sapiens, read-out: sensitivity class by EC50
Experimental: as §1, §2
as §2, with “ABT-263” for “ABT-737”

MEG-01 = settings: Homo sapiens, read-out: sensitivity class by EC50
Experimental: as §1, §2
as §2, with “ABT-263” for “ABT-737”

Pfeiffer = settings: Homo sapiens, read-out: sensitivity class by EC50
Experimental: as §1, §2
as §2, with “ABT-263” for “ABT-737”

WSU-NHL = settings: Homo sapiens, read-out: sensitivity class by EC50
Experimental: as §1, §2
as §2, with “ABT-263” for “ABT-737”

RPMI 8226 = settings: Homo sapiens, read-out: sensitivity class by EC50
Experimental: as §1, §2
as §2, with “ABT-263” for “ABT-737”

HL-60 = settings: Homo sapiens, read-out: sensitivity class by EC50
Experimental: as §1, §2
as §2, with “ABT-263” for “ABT-737”

Loucy = settings: Homo sapiens, read-out: sensitivity class by EC50
Experimental: as §1, §2
as §2, with “ABT-263” for “ABT-737”

RS4;11 = settings: Homo sapiens, read-out: sensitivity class by EC50
Experimental: as §1, §2
as §2, with “ABT-263” for “ABT-737”

MOLT-4 = settings: Homo sapiens, read-out: sensitivity class by EC50
Experimental: as §1, §2
as §2, with “ABT-263” for “ABT-737”

Reh = settings: Homo sapiens, read-out: sensitivity class by EC50
Experimental: as §1, §2
as §2, with “ABT-263” for “ABT-737”

CCRF-CEM = settings: Homo sapiens, read-out: sensitivity class by EC50
Experimental: as §1, §2
as §2, with “ABT-263” for “ABT-737”

Daudi = settings: Homo sapiens, read-out: sensitivity class by EC50
Experimental: as §1, §2
as §2, with “ABT-263” for “ABT-737”

Jurkat I 9.2 = settings: Homo sapiens, read-out: sensitivity class by EC50
Experimental: as §1, §2
as §2, with “ABT-263” for “ABT-737”

U-937 = settings: Homo sapiens, read-out: sensitivity class by EC50
Experimental: as §1, §2
as §2, with “ABT-263” for “ABT-737”

K-562 = settings: Homo sapiens, K562, read-out: sensitivity class by EC50
Experimental: as §1, §2
as §2, with “ABT-263” for “ABT-737”

Rs11380 = settings: Homo sapiens, read-out: sensitivity class by EC50
Experimental: as §1, §2
as §2, with “ABT-263” for “ABT-737”

MV-4-11 = settings: Homo sapiens, MV4-11, read-out: sensitivity class by EC50
Experimental: as §1, §2
as §2, with “ABT-263” for “ABT-737”

CCRF-HSB-2 = settings: Homo sapiens, read-out: sensitivity class by EC50
Experimental: as §1, §2
as §2, with “ABT-263” for “ABT-737”

EC50 (DOHH2) [µM]	EC50 (KG-1A) [µM]	EC50 (A3) [µM]	EC50 (SUDHL4) [µM]	EC50 (Jurkat) [µM]	EC50 (CEM/C1) [µM]	EC50 (SUP-B15) [µM]	EC50 (Raji) [µM]	EC50 (MEG-01) [µM]	EC50 (Pfeiffer) [µM]	EC50 (WSU-NHL) [µM]	EC50 (RPMI 8226) [µM]	EC50 (HL-60) [µM]	EC50 (Loucy) [µM]	EC50 (RS4;11) [µM]	EC50 (MOLT-4) [µM]	EC50 (Reh) [µM]	EC50 (CCRF-CEM) [µM]	EC50 (Daudi) [µM]	EC50 (Jurkat I 9.2) [µM]	Structure (SMILES)	other results
< 5	< 5	< 5	< 5	> 5	< 5	< 5	> 5	> 5	< 5	< 5	< 5	< 5	< 5	< 5	< 5	< 5	< 5	< 5	< 5	CC1(C)CCC(c2ccc(Cl)cc2)=C(CN2CCN(c3ccc(C(=O)NS(=O)(=O)c4ccc(N[C@H](CCN5CCOCC5)CSc5ccccc5)c(S(=O)(=O)C(F)(F)F)c4)cc3)CC2)C1 [ABT-263, N-(4-(4-((2-(4-chlorophenyl)-5,5-dimethyl-1-cyclohex-1-en-1-yl)methyl)piperazin-1-yl)benzoyl)-4-(((1R)-3-(morpholin-4-yl)-1-((phenylsulfanyl)methyl)propyl)amino)-3-((trifluoromethyl)sulfonyl)benzenesulfonamide]	EC50 (U-937): > 5 µM; EC50 (K-562): > 5 µM; EC50 (Rs11380): < 5 µM; EC50 (MV-4-11): < 5 µM; EC50 (CCRF-HSB-2): < 5 µM
< 5	< 5	< 5	< 5	> 5	< 5	< 5	> 5	> 5	< 5	< 5	< 5	< 5	< 5	< 5	< 5	< 5	< 5	< 5	< 5	CN(C)CC[C@H](CSc1ccccc1)Nc1ccc(S(=O)(=O)NC(=O)c2ccc(N3CCN(Cc4ccccc4-c4ccc(Cl)cc4)CC3)cc2)cc1[N+](=O)[O-] [ABT-737, N-(4-(4-((4′-chloro(1,1′-biphenyl)-2-yl)methyl)piperazin-1-yl)benzoyl)-4-(((1R)-3-(dimethylamino)-1-((phenylsulfanyl)methyl)propyl)amino)-3-nitrobenzenesulfonamide]	EC50 (U-937): > 5 µM; EC50 (K-562): > 5 µM; EC50 (Rs11380): < 5 µM; EC50 (MV-4-11): < 5 µM; EC50 (CCRF-HSB-2): < 5 µM
